Experiment [1] addresses T1, human recombinant HDAC1 (Homo sapiens, UniProt Q13547).
T1 construct: purchased Enzo Life Science BML-SE456
In words: HDAC1 enzyme activity inhibition assay (HDAC Fluorimetric Drug Discovery Kit). The format is biochemical. As to conditions: human recombinant HDAC1, 10 μM substrate, 30° C. 60 minutes. The method in brief:
(§1)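 Fluorescence (Ex 360, Em 460) after 30 min developer step; IC50 from dose-response. Reaction: 0.3 μg recombinant enzyme, 10 μM Fluor de Lys-SIRT1 substrate, 5-fold compound dilutions, 60 min at 30° C. Same protocol for both isoforms.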

For experiment [2], the target named is T2, human recombinant HDAC6 (Homo sapiens, UniProt Q9UBN7).
T2 construct: purchased Calbiochem 382180
T2 sequence (Q9UBN7 1-1215): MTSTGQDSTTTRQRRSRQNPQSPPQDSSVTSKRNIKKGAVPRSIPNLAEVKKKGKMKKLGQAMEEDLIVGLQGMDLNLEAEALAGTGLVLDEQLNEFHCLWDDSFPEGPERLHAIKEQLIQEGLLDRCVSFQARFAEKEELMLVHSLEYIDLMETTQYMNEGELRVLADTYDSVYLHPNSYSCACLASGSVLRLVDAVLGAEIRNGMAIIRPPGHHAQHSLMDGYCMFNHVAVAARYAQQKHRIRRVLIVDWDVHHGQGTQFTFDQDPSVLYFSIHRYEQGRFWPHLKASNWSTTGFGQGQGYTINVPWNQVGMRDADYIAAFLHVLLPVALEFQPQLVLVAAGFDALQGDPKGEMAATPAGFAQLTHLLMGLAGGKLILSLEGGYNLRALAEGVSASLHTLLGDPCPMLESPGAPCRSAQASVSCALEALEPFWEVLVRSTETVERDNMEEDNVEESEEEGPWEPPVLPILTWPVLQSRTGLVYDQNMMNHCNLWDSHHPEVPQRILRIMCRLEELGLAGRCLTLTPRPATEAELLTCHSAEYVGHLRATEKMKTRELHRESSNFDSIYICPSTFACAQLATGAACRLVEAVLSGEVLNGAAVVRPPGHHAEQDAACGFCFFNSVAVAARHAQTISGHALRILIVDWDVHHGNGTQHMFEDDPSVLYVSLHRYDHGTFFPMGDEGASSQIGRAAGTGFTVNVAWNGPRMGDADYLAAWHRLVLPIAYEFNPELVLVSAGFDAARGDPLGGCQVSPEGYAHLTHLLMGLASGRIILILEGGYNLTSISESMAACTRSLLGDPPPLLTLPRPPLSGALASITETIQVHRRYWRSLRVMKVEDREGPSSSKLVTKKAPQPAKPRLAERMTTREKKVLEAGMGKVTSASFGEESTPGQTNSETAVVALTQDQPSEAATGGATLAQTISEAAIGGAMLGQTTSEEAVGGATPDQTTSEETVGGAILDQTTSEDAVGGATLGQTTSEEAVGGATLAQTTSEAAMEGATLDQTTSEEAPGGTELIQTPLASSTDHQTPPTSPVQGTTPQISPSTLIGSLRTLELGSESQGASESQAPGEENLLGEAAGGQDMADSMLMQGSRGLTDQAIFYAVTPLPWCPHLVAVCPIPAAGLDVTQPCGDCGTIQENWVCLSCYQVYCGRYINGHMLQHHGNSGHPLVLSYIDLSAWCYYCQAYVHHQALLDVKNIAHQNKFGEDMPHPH
The experiment is described as follows: HDAC6 enzyme activity inhibition assay (HDAC Fluorimetric Drug Discovery Kit). The format is biochemical. The following applies: 30° C. 60 minutes. The method in brief: as §1

Ten compounds from US10494355B2, “Oxadiazole amine derivative compounds as histone deacetylase 6 inhibitor, and the pharmaceutical composition comprising the same” (Chong Kun Dang Pharmaceutical Corp., priority 2015, dated 2019) can be followed below.

As usually defined, the IC50 is the midpoint of a concentration-inhibition curve.

T1 sequence (Q13547 whole entry): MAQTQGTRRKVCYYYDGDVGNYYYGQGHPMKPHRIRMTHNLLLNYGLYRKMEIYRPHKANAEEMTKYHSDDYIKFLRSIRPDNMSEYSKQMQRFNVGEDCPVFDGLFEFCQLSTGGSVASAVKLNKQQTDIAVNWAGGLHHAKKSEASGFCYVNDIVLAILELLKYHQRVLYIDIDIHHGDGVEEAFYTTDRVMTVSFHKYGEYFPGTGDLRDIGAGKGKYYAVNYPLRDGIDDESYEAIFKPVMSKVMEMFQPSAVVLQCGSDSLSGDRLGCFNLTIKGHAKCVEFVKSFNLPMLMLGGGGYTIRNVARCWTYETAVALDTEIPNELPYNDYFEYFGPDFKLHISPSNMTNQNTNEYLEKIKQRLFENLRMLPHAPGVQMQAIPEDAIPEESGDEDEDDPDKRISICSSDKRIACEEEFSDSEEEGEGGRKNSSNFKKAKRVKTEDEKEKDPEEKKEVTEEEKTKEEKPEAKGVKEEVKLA

On to `Fc1ccc(C2(Nc3ncc(-c4nnc(C(F)F)o4)cn3)CCC2)cc1N1CCOCC1` [Compound 2046, 5-(5-(difluoromethyl)-1,3,4-oxadiazol-2-yl)-N-(1-(4-fluoro-3-morpholinophenyl)cyclobutyl)pyrimidin-2-amine], for which the figures for the IC50 in experiment [1] and in experiment [2] were greater than 10000 nM and 329 nM, respectively.

In the case of `Cc1ccccc1C1(Nc2ncc(-c3nnc(C(F)F)o3)cn2)CC1` [Compound 2055, 5-(5-(difluoromethyl)-1,3,4-oxadiazol-2-yl)-N-(1-(o-tolyl)cyclopropyl)pyrimidin-2-amine], the values for the IC50 in experiment [1] and in experiment [2] were greater than 10000 nM and 31 nM, respectively.

As for `FC(F)c1nnc(-c2cnc(NC3(c4ccc(OC(F)(F)F)cc4)CCC3)nc2)o1` [Compound 1822, 5-(5-(difluoromethyl)-1,3,4-oxadiazol-2-yl)-N-(1-(4-(trifluoromethoxy)phenyl)cyclobutyl)pyrimidin-2-amine], the half-inhibitory concentration (IC50) in experiment [1] is greater than 10000 nM; in experiment [2] it was 282 nM.

`Fc1c(Cl)cccc1C1(Nc2ncc(-c3nnc(C(F)F)o3)cn2)CCC1` [Compound 1965, N-(1-(3-chloro-2-fluorophenyl)cyclobutyl)-5-(5-(difluoromethyl)-1,3,4-oxadiazol-2-yl)pyrimidin-2-amine]: the IC50 in experiment [1] was greater than 10000 nM; in experiment [2] it was 70 nM.

`FC(F)c1nnc(-c2cnc(NC3(c4ccc(Cl)c(Cl)c4)CCC3)nc2)o1` [Compound 1834, N-(1-(3,4-dichlorophenyl)cyclobutyl)-5-(5-(difluoromethyl)-1,3,4-oxadiazol-2-yl)pyrimidin-2-amine]: the IC50 in experiment [1] was greater than 10000 nM; in experiment [2], 120 nM.

Take `FC(F)c1nnc(-c2cnc(NC3(c4ccc(Cl)cc4Cl)CCC3)nc2)o1` [Compound 1836, N-(1-(2,4-dichlorophenyl)cyclobutyl)-5-(5-(difluoromethyl)-1,3,4-oxadiazol-2-yl)pyrimidin-2-amine]: the values for the IC50 in experiment [1] and in experiment [2] were greater than 10000 nM and 200 nM, respectively.

`FC(F)(F)c1ccc(C2(Nc3ncc(-c4nnc(C(F)(F)F)o4)cn3)CCC2)cc1` [Compound 2044, 5-(5-(trifluoromethyl)-1,3,4-oxadiazol-2-yl)-N-(1-(4-(trifluoromethyl)phenyl)cyclobutyl)pyrimidin-2-amine]: the results for the IC50 in experiment [1] and in experiment [2] were greater than 10000 nM and 1740 nM, respectively.

On to `Fc1cccc(C2(Nc3ncc(-c4nnc(C(F)(F)F)o4)cn3)CC2)c1` [Compound 1714, N-(1-(3-fluorophenyl)cyclopropyl)-5-(5-(trifluoromethyl)-1,3,4-oxadiazol-2-yl)pyrimidin-2-amine], for which the values for the IC50 in experiment [1] and in experiment [2] were greater than 10000 nM and 138 nM, respectively.

For `Fc1cc(Cl)ccc1C1(Nc2ncc(-c3nnc(C(F)F)o3)cn2)CC1` [Compound 2056, N-(1-(4-chloro-2-fluorophenyl)cyclopropyl)-5-(5-(difluoromethyl)-1,3,4-oxadiazol-2-yl)pyrimidin-2-amine], the IC50 in experiment [1] is greater than 10000 nM; in experiment [2], 35 nM.

For `Fc1ccc(C2(Nc3ncc(-c4nnc(C(F)(F)F)o4)cn3)CC2)cc1F` [Compound 1780, N-(1-(3,4-difluorophenyl)cyclopropyl)-5-(5-(trifluoromethyl)-1,3,4-oxadiazol-2-yl)pyrimidin-2-amine], the IC50 was greater than 10000 nM in experiment [1] and 420 nM in experiment [2].
